Legend:
Type in all cases: in vivo
[1] = system: barnyardgrass (Echinochloa crus-galli); assay: Test G Pre-Emergence Protocol; conditions: Echinochloa crus-galli, pre-emergence, 312 h, evaluated after 13 days
Method in brief: (§1)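 Glasshouse pre-emergence test: soil-sown seeds, sprayed after 1 d at 15.625, 62.5 or 250 g/ha. Conditions 24/16° C day/night, 14 h light, 65% humidity, watering twice daily. Rating 13 d post-spray (100 = total damage).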

corn (Zea mays) [2] = assay: Test G Pre-Emergence Protocol; conditions: Zea mays, pre-emergence, 312 h, evaluated after 13 days
Method in brief: as §1

[3] = system: giant foxtail (Setaria faberi); assay: Test G Pre-Emergence Protocol; conditions: Setaria faberi, pre-emergence, 312 h, evaluated after 13 days
Method in brief: as §1

[4] = system: ivy-leaved morning glory (Ipomoea hederacea); assay: Test G Pre-Emergence Protocol; conditions: Ipomoea, pre-emergence, 312 h, evaluated after 13 days
Method in brief: as §1

[5] = system: redroot pigweed (Amaranthus retroflexus); assay: Test G Pre-Emergence Protocol; conditions: Amaranthus retroflexus, pre-emergence, 312 h, evaluated after 13 days
Method in brief: as §1

[6] = system: velvetleaf (Abutilon theophrasti); assay: Test G Pre-Emergence Protocol; conditions: Abutilon theophrasti, pre-emergence, 312 h, evaluated after 13 days
Method in brief: as §1

[7] = system: barnyardgrass (Echinochloa crus-galli); assay: Test G Post-Emergence Protocol; conditions: Echinochloa crus-galli, post-emergence, 312 h
Method in brief: (§2)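 Foliar application was made 8 days after sowing, using an aqueous spray of the active in acetone/water (50:50) with 0.5% Tween 20, at doses of 15.625, 62.5 or 250 g/ha. Injury was assessed 13 days later, where 100 meant the plant was fully damaged.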

corn (Zea mays) [8] = assay: Test G Post-Emergence Protocol; conditions: Zea mays, post-emergence, 312 h
Method in brief: as §2

[9] = system: giant foxtail (Setaria faberi); assay: Test G Post-Emergence Protocol; conditions: Setaria faberi, post-emergence, 312 h
Method in brief: as §2

[10] = system: ivy-leaved morning glory (Ipomoea hederacea); assay: Test G Post-Emergence Protocol; conditions: Ipomoea, post-emergence, 312 h
Method in brief: as §2

[11] = system: redroot pigweed (Amaranthus retroflexus); assay: Test G Post-Emergence Protocol; conditions: Amaranthus retroflexus, post-emergence, 312 h
Method in brief: as §2

[12] = system: velvetleaf (Abutilon theophrasti); assay: Test G Post-Emergence Protocol; conditions: Abutilon theophrasti, post-emergence, 312 h
Method in brief: as §2

CN1C[C@@H](c2cnc(Cl)c(F)c2)[C@H](C(=O)Nc2cccc(F)c2F)C1=O (racemic) [Compound 1486]
90%: pest or weed control at 250 g/ha ([1]; 250 g ai/ha, read-out: Barnyardgrass damage rating (100=total damage to plant; 0=no damage to plant)) | pest or weed control at 62.5 g/ha ([3]; 62.5 g ai/ha, 100=total damage to plant, 0=no damage to plant, read-out: plant damage rating, Foxtail, Giant) | pest or weed control at 250 g/ha ([3]; 250 g ai/ha, read-out: Foxtail, Giant damage rating (100=total damage to plant; 0=no damage to plant))
10%: plant injury at 15.625 g/ha (corn (Zea mays) [2]; 15.625 g ai/ha, read-out: Corn damage rating (100=total damage to plant; 0=no damage to plant)) | pest or weed control at 250 g/ha ([6]; 250 g ai/ha, read-out: Velvetleaf damage rating (100=total damage to plant; 0=no damage to plant)) | plant injury at 15.625 g/ha (corn (Zea mays) [8]; 15.625 g ai/ha, evaluated after 13 days (100=total damage to plant; 0=no damage to plant), read-out: Corn damage rating) | plant injury at 62.5 g/ha (corn (Zea mays) [8]; 62.5 g ai/ha, evaluated after 13 days, read-out: Corn damage rating (100=total damage to plant; 0=no damage to plant)) | pest or weed control at 250 g/ha ([12]; 250 g ai/ha, evaluated after 13 days, read-out: damage to plant, Velvetleaf (100=total damage to plant; 0=no damage to plant))
40%: plant injury at 250 g/ha (corn (Zea mays) [2]; 250 g ai/ha, read-out: Corn damage rating (100=total damage to plant; 0=no damage to plant)) | pest or weed control at 15.625 g/ha ([3]; 15.625 g ai/ha, read-out: Foxtail, Giant damage rating (100=total damage to plant; 0=no damage to plant)) | pest or weed control at 15.625 g/ha ([7]; 15.625 g ai/ha, evaluated after 13 days (100=total damage to plant; 0=no damage to plant), read-out: Barnyardgrass damage rating)
0%: pest or weed control at 15.625 g/ha ([4]; 15.625 g ai/ha, read-out: Morning-glory, Ivy-leaved damage rating (100=total damage to plant; 0=no damage to plant)) | pest or weed control at 62.5 g/ha ([4]; 62.5 g ai/ha, 100=total damage to plant, 0=no damage to plant, read-out: plant damage rating, Morningglory, Ivy-leaved) | pest or weed control at 250 g/ha ([4]; 250 g ai/ha, read-out: Morningglory, Ivy-leaved damage rating (100=total damage to plant; 0=no damage to plant)) | pest or weed control at 15.625 g/ha ([5]; 15.625 g ai/ha, read-out: Pigweed, Redroot damage rating (100=total damage to plant; 0=no damage to plant)) | pest or weed control at 62.5 g/ha ([5]; 62.5 g ai/ha, 100=total damage to plant, 0=no damage to plant, read-out: plant damage rating, Pigweed, Redroot) | pest or weed control at 15.625 g/ha ([6]; 15.625 g ai/ha, read-out: Velvetleaf damage rating (100=total damage to plant; 0=no damage to plant)) | pest or weed control at 62.5 g/ha ([6]; 62.5 g ai/ha, 100=total damage to plant, 0=no damage to plant, read-out: plant damage rating, Velvetleaf) | pest or weed control at 15.625 g/ha ([10]; 15.625 g ai/ha, evaluated after 13 days (100=total damage to plant; 0=no damage to plant), read-out: Morningglory, Ivy-leaved damage rating) | pest or weed control at 62.5 g/ha ([10]; 62.5 g ai/ha, evaluated after 13 days, read-out: Morningglory, Ivy-leaved damage rating (100=total damage to plant; 0=no damage to plant)) | pest or weed control at 250 g/ha ([10]; 250 g ai/ha, evaluated after 13 days, read-out: damage to plant, Morningglory, Ivy-leaved (100=total damage to plant; 0=no damage to plant)) | pest or weed control at 15.625 g/ha ([11]; 15.625 g ai/ha, evaluated after 13 days (100=total damage to plant; 0=no damage to plant), read-out: Pigweed, Redroot damage rating) | pest or weed control at 62.5 g/ha ([11]; 62.5 g ai/ha, evaluated after 13 days, read-out: Pigweed, Redroot damage rating (100=total damage to plant; 0=no damage to plant)) | pest or weed control at 15.625 g/ha ([12]; 15.625 g ai/ha, evaluated after 13 days (100=total damage to plant; 0=no damage to plant), read-out: Velvetleaf damage rating) | pest or weed control at 62.5 g/ha ([12]; 62.5 g ai/ha, evaluated after 13 days, read-out: Velvetleaf damage rating (100=total damage to plant; 0=no damage to plant))
70%: pest or weed control at 250 g/ha ([7]; 250 g ai/ha, evaluated after 13 days, read-out: damage to plant, Barnyardgrass (100=total damage to plant; 0=no damage to plant)) | pest or weed control at 250 g/ha ([9]; 250 g ai/ha, evaluated after 13 days, read-out: damage to plant, Foxtail, Giant (100=total damage to plant; 0=no damage to plant))
20%: plant injury at 62.5 g/ha (corn (Zea mays) [2]; 62.5 g ai/ha, 100=total damage to plant, 0=no damage to plant, read-out: plant damage rating, Corn)
60%: pest or weed control at 62.5 g/ha ([1]; 62.5 g ai/ha, 100=total damage to plant, 0=no damage to plant, read-out: plant damage rating, Barnyardgrass) | pest or weed control at 250 g/ha ([5]; 250 g ai/ha, read-out: Pigweed, Redroot damage rating (100=total damage to plant; 0=no damage to plant)) | pest or weed control at 62.5 g/ha ([7]; 62.5 g ai/ha, evaluated after 13 days, read-out: Barnyardgrass damage rating (100=total damage to plant; 0=no damage to plant)) | plant injury at 250 g/ha (corn (Zea mays) [8]; 250 g ai/ha, evaluated after 13 days, read-out: damage to plant, Corn (100=total damage to plant; 0=no damage to plant)) | pest or weed control at 15.625 g/ha ([9]; 15.625 g ai/ha, evaluated after 13 days (100=total damage to plant; 0=no damage to plant), read-out: Foxtail, Giant damage rating) | pest or weed control at 62.5 g/ha ([9]; 62.5 g ai/ha, evaluated after 13 days, read-out: Foxtail, Giant damage rating (100=total damage to plant; 0=no damage to plant))
30%: pest or weed control at 15.625 g/ha ([1]; 15.625 g ai/ha, read-out: Barnyard grass damage rating (100=total damage to plant; 0=no damage to plant)) | pest or weed control at 250 g/ha ([11]; 250 g ai/ha, evaluated after 13 days, read-out: damage to plant, Pigweed, Redroot (100=total damage to plant; 0=no damage to plant))
